The source of these data is patent US11666657B2, “Protein-drug conjugates and their use in the treatment of cancers” (UNIVERSITE DE STRASBOURG, priority 2017, dated 2023).

Several values for one entry are separate records, joined by “and”; a condition that tells them apart may be missing. Equal entries are not always repeated.

Test [1] concerns HER2+ SK-BR-3 cells. Briefly: In vitro efficacy on cell viability (CellTiter 96 AQueous One Solution Cell Proliferation Assay), HER2+ SK-BR-3. The test is classed as cell-based. Particulars: 96 hrs treatment. The method, then:
Antiproliferative activity of the ADCs according to this invention was evaluated on two cell lines and compared with that of the commercial ADC Kadcyla® (T-DM1).
HER2^+ SK-BR-3 and HER2^− MDA-MB-231 cell lines were grown in DMEM—high glucose (4,500 mg/L) supplemented with 10% fetal calf serum, Penicillin (200 U/mL)-Streptomycin (200 μg/mL) and L-glutamin (4 mM) (all from Sigma Aldrich, St Louis, Mo., USA). The effects of the payloads and ADCs on these cell lines were assessed using CellTiter 96® AQueous One Solution Cell Proliferation Assay (Promega, Madison, Wis., USA). The cytotoxic agent MMAE was used as a positive control of cell death and every condition was performed as triplicates. SKBR-3 cells were plated in 96-well plates at 3,000 cells/well for ADC tests and at 5,000 cells/well for payload tests, in 100 μL medium. MDA-MB231 cells were plated in 96-well plates at 15,000 cells/well, in 100 μL medium. The cells were allowed to adhere for 24 hrs at 37° C. in a humidified atmosphere of 5% CO2. Medium was then removed and replaced by payloads, ADCs, or MMAE, at different concentrations in fresh medium. […] Absorbance was measured at 515 nm using a 96-well plate reader (Flx-Xenius XM, Safas, Monaco), and to estimate the percentage of viable cells according to each treatment, the negative controls were considered as 100% viability. […]

Test [2] has as its system BT-474 ductal carcinoma tumors. Briefly: In vivo anti-tumour efficacy in nude mice bearing subcutaneous BT-474 tumors. Also on record: species or system Balb/c nude mice. Conditions: single i.v. injection 1 mg/kg, BT-474 tumours in nude mice, versus control group.
Experimental: In vivo therapeutic efficacy of the ADCs of this invention was evaluated in nude mice bearing subcutaneous BT-474 tumors.
Twenty (20) 6 to 8 week-old Balb/c nude (CByJ.Cg-Foxn1nu/J) females (Charles River Laboratories, L'Arbresles, France) were implanted with BT-474 ductal carcinoma cells (2×10^7) suspended in 200 μL RPMI 1640 medium (Sigma Aldrich) containing matrigel (50:50, v:v, BD Biosciences, France). The injection was performed subcutaneously in the right flank. One day prior implant, the animals were gamma irradiated (2 Gy, ^60Co). The cell transplant was considered as day 0 (D0). Once tumours reached a volume of 200-300 mm^3, mice were randomized according to their individual tumour volume into four distinct groups. The variance of mouse distribution within the groups was analysed to confirm the homogeneity of the groups.
Animal viability, behaviour and well-being were recorded daily; body weight was measured twice a week; and tumour volume was assessed twice a week with a calliper. The volume of the tumour was estimated formula as follow: volume=(width^2×length)/2.
Relative tumour volumes (RTV) were calculated according to the following formula:
Specifically, a principal component analysis (PCA) was carried out using XL Stat software (Addinsoft, Paris, France) in order to compare antitumour activity of T-DM1 and T-APN-Gal-MMAE. […]

As for trastuzumab emtansine [T-DM1], in test [1], the IC50 (usually the concentration that gives 50% inhibition) was 0.033 nM and 0.0342 nM. Also, the “effect on tumour growth” value in test [2] is recorded as “not statistically significant”.
